From ChEMBL document CHEMBL4190368, “Synthesis and antimalarial evaluation of artesunate-polyamine and trioxolane-polyamine conjugates” (Eur J Med Chem, 2017)

How the values were obtained:
L6 = assay: Cytotoxicity in rat L6 cells assessed as reduction in cell viability incubated for 72 hrs by alamar blue dye based assay; settings: L6, 72 h
[1] = Selectivity index, ratio of IC50 for rat L6 cells to IC50 for chloroquine and pyrimethamine resistant Plasmodium falciparum K1; format: toxicity; settings: L6 cells versus Plasmodium falciparum K1, read-out: Ratio IC50
Plasmodium falciparum [2] = assay: Antiplasmodial activity against chloroquine sensitive Plasmodium falciparum NF54 assessed as reduction in [3H]-hypoxanthine incorporation incubated for 48 hrs by liquid scintillation counting method; format: functional, organism-based
Plasmodium falciparum [3] = assay: Antiplasmodial activity against chloroquine and pyrimethamine resistant Plasmodium falciparum K1 assessed as reduction in [3H]-hypoxanthine incorporation incubated for 48 hrs by liquid scintillation counting method; format: functional, organism-based
Plasmodium berghei [4] = assay: Antiplasmodial activity against GFP-transfected Plasmodium berghei ANKA infected in NMRI mouse assessed as mouse survival at 50 mg/kg/day, ip for 4 days measured up to 30 days; format: functional
Plasmodium berghei [5] = assay: Antiplasmodial activity against GFP-transfected Plasmodium berghei ANKA infected in NMRI mouse assessed as reduction in parasitaemia at 50 mg/kg/day, ip for 4 days measured on 24 hrs after last dose by FACS analysis; format: functional; parameters: scale not given: the % may be the effect or the level left
[6] = Selectivity index, ratio of IC50 for rat L6 cells to IC50 for chloroquine sensitive Plasmodium falciparum NF54; format: toxicity; settings: L6 cells versus Plasmodium falciparum NF54, read-out: Ratio IC50

| Structure (SMILES) | IC50 (L6) [nM] | selectivity ratio [1] | IC50 (Plasmodium falciparum [2]) [nM] | IC50 (Plasmodium falciparum [3]) [nM] | Survival (Plasmodium berghei [4]) [days] | Activity (Plasmodium berghei [5]) [%] | selectivity ratio [6] |
| --- | --- | --- | --- | --- | --- | --- | --- |
| C[C@H]1[C@H](OC(=O)CCC(=O)NCCCN(CCCCCCCN(CCCNC(=O)CCC(=O)O[C@@H]2O[C@@H]3O[C@@]4(C)CC[C@H]5[C@H](C)CC[C@@H]([C@H]2C)[C@@]35OO4)C(=O)OC(C)(C)C)C(=O)OC(C)(C)C)O[C@@H]2O[C@@]3(C)CC[C@H]4[C@H](C)CC[C@@H]1[C@@]24OO3 | 970 | 1210 | 0.6 | 0.8 |  |  |  |
| C[C@H]1[C@H](OC(=O)CCC(=O)NCCCN(CCCCCCCCCCN(CCCNC(=O)CCC(=O)O[C@@H]2O[C@@H]3O[C@@]4(C)CC[C@H]5[C@H](C)CC[C@@H]([C@H]2C)[C@@]35OO4)C(=O)CCC(=O)O[C@@H]2O[C@@H]3O[C@@]4(C)CC[C@H]5[C@H](C)CC[C@@H]([C@H]2C)[C@@]35OO4)C(=O)CCC(=O)O[C@@H]2O[C@@H]3O[C@@]4(C)CC[C@H]5[C@H](C)CC[C@@H]([C@H]2C)[C@@]35OO4)O[C@@H]2O[C@@]3(C)CC[C@H]4[C@H](C)CC[C@@H]1[C@@]24OO3 | 490 | 445 | 0.6 | 1.1 |  |  |  |
| CC(C)(C)OC(=O)N(CCCCCCN(CCCNC(=O)C1CCC2(CC1)OOC1(O2)C2CC3CC(C2)CC1C3)C(=O)OC(C)(C)C)CCCNC(=O)C1CCC2(CC1)OOC1(O2)C2CC3CC(C2)CC1C3 (stereo unspecified) | 59200 | 10800 | 21 | 5 | 6.7 | 79.4 |  |
| CC(C)(C)OC(=O)N(CCCCN(CCCNC(=O)C1CCC2(CC1)OOC1(O2)C2CC3CC(C2)CC1C3)C(=O)OC(C)(C)C)CCCNC(=O)C1CCC2(CC1)OOC1(O2)C2CC3CC(C2)CC1C3 (stereo unspecified) | 65800 | 7160 | 5.1 | 9.2 | 9.3 | 96.4 |  |
| C[C@H]1[C@H](OC(=O)CCC(=O)NCCCN(CCCCCCCCN(CCCNC(=O)CCC(=O)O[C@@H]2O[C@@H]3O[C@@]4(C)CC[C@H]5[C@H](C)CC[C@@H]([C@H]2C)[C@@]35OO4)C(=O)OC(C)(C)C)C(=O)OC(C)(C)C)O[C@@H]2O[C@@]3(C)CC[C@H]4[C@H](C)CC[C@@H]1[C@@]24OO3 | 560 | 700 | 0.7 | 0.8 |  |  |  |
| O=C(NCCCN(CCCCCCCCCCN(CCCNC(=O)C1CCC2(CC1)OOC1(O2)C2CC3CC(C2)CC1C3)C(=O)C1CCC2(CC1)OOC1(O2)C2CC3CC(C2)CC1C3)C(=O)C1CCC2(CC1)OOC1(O2)C2CC3CC(C2)CC1C3)C1CCC2(CC1)OOC1(O2)C2CC3CC(C2)CC1C3 (stereo unspecified) | > 69000 | > 2300 | 88 | 30 |  |  |  |
| O=C(NCCCN(CCCCN(CCCNC(=O)C1CCC2(CC1)OOC1(O2)C2CC3CC(C2)CC1C3)C(=O)C1CCC2(CC1)OOC1(O2)C2CC3CC(C2)CC1C3)C(=O)C1CCC2(CC1)OOC1(O2)C2CC3CC(C2)CC1C3)C1CCC2(CC1)OOC1(O2)C2CC3CC(C2)CC1C3 (stereo unspecified) | 50400 | 8130 | 98 | 6.2 |  |  |  |
| C[C@H]1[C@H](OC(=O)CCC(=O)O)O[C@@H]2O[C@@]3(C)CC[C@H]4[C@H](C)CC[C@@H]1[C@@]24OO3 [ARTESUNATE] | 6630 | 13300 | 2.6 | 0.5 |  |  |  |
| C[C@H]1[C@H](OC(=O)CCC(=O)NCCCN(CCCCCCCCCCN(CCCNC(=O)CCC(=O)O[C@@H]2O[C@@H]3O[C@@]4(C)CC[C@H]5[C@H](C)CC[C@@H]([C@H]2C)[C@@]35OO4)C(=O)OC(C)(C)C)C(=O)OC(C)(C)C)O[C@@H]2O[C@@]3(C)CC[C@H]4[C@H](C)CC[C@@H]1[C@@]24OO3 | 500 | 625 | 0.8 | 0.8 |  |  |  |
| CC(C)(C)OC(=O)N(CCCCCCCCCCN(CCCNC(=O)C1CCC2(CC1)OOC1(O2)C2CC3CC(C2)CC1C3)C(=O)OC(C)(C)C)CCCNC(=O)C1CCC2(CC1)OOC1(O2)C2CC3CC(C2)CC1C3 (stereo unspecified) | 70900 | 1180 | 97 | 60 |  |  |  |
| C[C@H]1[C@H](OC(=O)CCC(=O)NCCCN(CCCCN(CCCNC(=O)CCC(=O)O[C@@H]2O[C@@H]3O[C@@]4(C)CC[C@H]5[C@H](C)CC[C@@H]([C@H]2C)[C@@]35OO4)C(=O)CCC(=O)O[C@@H]2O[C@@H]3O[C@@]4(C)CC[C@H]5[C@H](C)CC[C@@H]([C@H]2C)[C@@]35OO4)C(=O)CCC(=O)O[C@@H]2O[C@@H]3O[C@@]4(C)CC[C@H]5[C@H](C)CC[C@@H]([C@H]2C)[C@@]35OO4)O[C@@H]2O[C@@]3(C)CC[C@H]4[C@H](C)CC[C@@H]1[C@@]24OO3 | 11200 |  | 0.3 |  | 30 | 95.5 | 37300 |
| C[C@H]1[C@H](OC(=O)CCC(=O)NCCCN(CCCCCCN(CCCNC(=O)CCC(=O)O[C@@H]2O[C@@H]3O[C@@]4(C)CC[C@H]5[C@H](C)CC[C@@H]([C@H]2C)[C@@]35OO4)C(=O)OC(C)(C)C)C(=O)OC(C)(C)C)O[C@@H]2O[C@@]3(C)CC[C@H]4[C@H](C)CC[C@@H]1[C@@]24OO3 | 660 | 733 | 0.8 | 0.9 |  |  |  |
| CC(C)(C)OC(=O)N(CCCCCCCN(CCCNC(=O)C1CCC2(CC1)OOC1(O2)C2CC3CC(C2)CC1C3)C(=O)OC(C)(C)C)CCCNC(=O)C1CCC2(CC1)OOC1(O2)C2CC3CC(C2)CC1C3 (stereo unspecified) | > 100000 | > 3020 | 45.4 | 32.2 | 7.3 | 94.7 |  |
| C[C@H]1[C@H](OC(=O)CCC(=O)NCCCN(CCCCCCCCN(CCCNC(=O)CCC(=O)O[C@@H]2O[C@@H]3O[C@@]4(C)CC[C@H]5[C@H](C)CC[C@@H]([C@H]2C)[C@@]35OO4)C(=O)CCC(=O)O[C@@H]2O[C@@H]3O[C@@]4(C)CC[C@H]5[C@H](C)CC[C@@H]([C@H]2C)[C@@]35OO4)C(=O)CCC(=O)O[C@@H]2O[C@@H]3O[C@@]4(C)CC[C@H]5[C@H](C)CC[C@@H]([C@H]2C)[C@@]35OO4)O[C@@H]2O[C@@]3(C)CC[C@H]4[C@H](C)CC[C@@H]1[C@@]24OO3 | 900 | 1500 | 0.8 | 0.6 |  |  |  |
| O=C(O)C1CCC2(CC1)OOC1(O2)C2CC3CC(C2)CC1C3 (stereo unspecified) | 139000 | 49600 | 6.5 | 2.8 |  |  |  |
| O=C(NCCCN(CCCCCCN(CCCNC(=O)C1CCC2(CC1)OOC1(O2)C2CC3CC(C2)CC1C3)C(=O)C1CCC2(CC1)OOC1(O2)C2CC3CC(C2)CC1C3)C(=O)C1CCC2(CC1)OOC1(O2)C2CC3CC(C2)CC1C3)C1CCC2(CC1)OOC1(O2)C2CC3CC(C2)CC1C3 (stereo unspecified) | 63200 | 5740 | 22 | 11 |  |  |  |
| CC(C)(C)OC(=O)N(CCCCCCCCN(CCCNC(=O)C1CCC2(CC1)OOC1(O2)C2CC3CC(C2)CC1C3)C(=O)OC(C)(C)C)CCCNC(=O)C1CCC2(CC1)OOC1(O2)C2CC3CC(C2)CC1C3 (stereo unspecified) | 57600 | 976 | 79 | 59 |  |  |  |
| O=C(NCCCN(CCCCCCCN(CCCNC(=O)C1CCC2(CC1)OOC1(O2)C2CC3CC(C2)CC1C3)C(=O)C1CCC2(CC1)OOC1(O2)C2CC3CC(C2)CC1C3)C(=O)C1CCC2(CC1)OOC1(O2)C2CC3CC(C2)CC1C3)C1CCC2(CC1)OOC1(O2)C2CC3CC(C2)CC1C3 (stereo unspecified) | > 71000 | > 934 | 287 | 76 |  |  |  |
| O=C(NCCCN(CCCCCCCCN(CCCNC(=O)C1CCC2(CC1)OOC1(O2)C2CC3CC(C2)CC1C3)C(=O)C1CCC2(CC1)OOC1(O2)C2CC3CC(C2)CC1C3)C(=O)C1CCC2(CC1)OOC1(O2)C2CC3CC(C2)CC1C3)C1CCC2(CC1)OOC1(O2)C2CC3CC(C2)CC1C3 (stereo unspecified) | 59200 | 5380 | 26 | 11 |  |  |  |
| C[C@H]1[C@H](OC(=O)CCC(=O)NCCCN(CCCCCCCN(CCCNC(=O)CCC(=O)O[C@@H]2O[C@@H]3O[C@@]4(C)CC[C@H]5[C@H](C)CC[C@@H]([C@H]2C)[C@@]35OO4)C(=O)CCC(=O)O[C@@H]2O[C@@H]3O[C@@]4(C)CC[C@H]5[C@H](C)CC[C@@H]([C@H]2C)[C@@]35OO4)C(=O)CCC(=O)O[C@@H]2O[C@@H]3O[C@@]4(C)CC[C@H]5[C@H](C)CC[C@@H]([C@H]2C)[C@@]35OO4)O[C@@H]2O[C@@]3(C)CC[C@H]4[C@H](C)CC[C@@H]1[C@@]24OO3 | 1240 | 2070 | 0.8 | 0.6 |  |  |  |
| C[C@H]1[C@H](OC(=O)CCC(=O)NCCCN(CCCCCCN(CCCNC(=O)CCC(=O)O[C@@H]2O[C@@H]3O[C@@]4(C)CC[C@H]5[C@H](C)CC[C@@H]([C@H]2C)[C@@]35OO4)C(=O)CCC(=O)O[C@@H]2O[C@@H]3O[C@@]4(C)CC[C@H]5[C@H](C)CC[C@@H]([C@H]2C)[C@@]35OO4)C(=O)CCC(=O)O[C@@H]2O[C@@H]3O[C@@]4(C)CC[C@H]5[C@H](C)CC[C@@H]([C@H]2C)[C@@]35OO4)O[C@@H]2O[C@@]3(C)CC[C@H]4[C@H](C)CC[C@@H]1[C@@]24OO3 | 880 | 1470 | 0.6 | 0.6 |  |  |  |
